Measurements published in US20260285850A1, “SUBSTITUTED OXAZOLIDINONES AND IMIDAZOLINONES AS HERBICIDES” (FMC CORPORATION, priority 2023, published 2026).

Legend:
Type in all cases: in vivo
kochia (Bassia scoparia) [1] = assay: Test A postemergence application, visual injury rating 0-100; conditions: Postemergence, 1000 g ai/ha, 0 to 100 scale, 10 days
Source text: (§1) Seeds of plant species selected from barnyardgrass (Echinochloa crus-galli), blackgrass (Alopecurus myosuroides), corn (Zea mays), foxtail, giant (giant foxtail, Setaria faberi), green foxtail (Setaria viridis), goosegrass (Eleusine indica), kochia (Bassia scoparia), oat, wild (wild oat, Avena fatua), palmer (palmer amaranth, palmer pigweed, Amaranthus palmeri), ragweed (common ragweed, Ambrosia artemisiifolia), ryegrass, Italian (italian ryegrass, Lolium multiflorum), soybean (Glycine max) and wheat (Triticum aestivum) were planted into a blend of loam soil and sand and treated preemergence with a directed soil spray using test chemicals formulated in a non-phytotoxic solvent mixture which included a surfactant.
(§2) At the same time, plants selected from these crops and weed species and also galium (catchweed bedstraw, Galium aparine) and horseweed (Erigeron canadensis) were planted in pots containing the same blend of loam soil and sand and treated with postemergence applications of test chemicals formulated in the same manner. Plants ranged in height from 2 to 10 cm and were in the one- to two-leaf stage for the postemergence treatment. Treated plants and untreated controls were maintained in a greenhouse for 10 days, after which time all treated plants were compared to untreated controls and visually evaluated for injury. Plant response ratings, summarized in Table A, are based on a 0 to 100 scale where 0 is no effect and 100 is complete control. A dash (-) response means no test result.

[2] = system: blackgrass (Alopecurus myosuroides); assay: as above; conditions: Postemergence, 1000 g ai/ha, 0 to 100 scale, 10 days
Source text: as §1, §2

[3] = system: horseweed (Erigeron canadensis); assay: as above; conditions: Postemergence, 1000 g ai/ha, 0 to 100 scale, 10 days
Source text: as §1, §2

[4] = system: green foxtail (Setaria viridis); assay: as above; conditions: Postemergence, 1000 g ai/ha, 0 to 100 scale, 10 days
Source text: as §1, §2

[5] = system: barnyardgrass (Echinochloa crus-galli); assay: as above; conditions: Postemergence, 1000 g ai/ha, 0 to 100 scale, 10 days
Source text: as §1, §2

[6] = system: galium (catchweed bedstraw, Galium aparine); assay: as above; conditions: Postemergence, 1000 g ai/ha, 0 to 100 scale, 10 days
Source text: as §1, §2

kochia (Bassia scoparia) [7] = assay: Test A preemergence soil spray, visual injury rating 0-100; conditions: 1000 g ai/ha, 10 days, 0 = no effect, 100 = complete control
Source text: as §1, §2

[8] = system: palmer (palmer amaranth, palmer pigweed, Amaranthus palmeri); assay: as above; conditions: 1000 g ai/ha, 10 days, 0 = no effect, 100 = complete control
Source text: as §1, §2

[9] = system: green foxtail (Setaria viridis); assay: as above; conditions: 1000 g ai/ha, 10 days, 0 = no effect, 100 = complete control
Source text: as §1, §2

[10] = system: barnyardgrass (Echinochloa crus-galli); assay: as above; conditions: 1000 g ai/ha, 10 days, 0 = no effect, 100 = complete control
Source text: as §1, §2

[11] = system: ryegrass, Italian (italian ryegrass, Lolium multiflorum); assay: as above; conditions: 1000 g ai/ha, 10 days, 0 = no effect, 100 = complete control
Source text: as §1, §2

[12] = system: sedge, umbrella (small-flower umbrella sedge, Cyperus difformis); assay: Test B flooded paddy test, visual plant response rating 0-100; conditions: 250 g ai/ha, Flood, applied to paddy water, evaluated after 13 days
Experimental: (§3) Plant species in the flooded paddy test selected from barnyardgrass (Echinochloa crusgalli), ducksalad (Heteranthera limosa), rice (Oryza sativa), and sedge, umbrella (small-flower umbrella sedge, Cyperus difformis) were grown to the 2-leaf stage for testing. At time of treatment, test pots were flooded to 3 cm above the soil surface, treated by application of test compounds directly to the paddy water, and then maintained at that water depth for the duration of the test. Treated plants and controls were maintained in a greenhouse for 13 days, after which time all species were compared to controls and visually evaluated. […] A dash (-) response means no test result.

[13] = system: barnyardgrass (Echinochloa crusgalli); assay: as above; conditions: 250 g ai/ha, Flood, applied to paddy water, evaluated after 13 days
Experimental: as §3

[14] = system: ducksalad (Heteranthera limosa); assay: as above; conditions: 250 g ai/ha, Flood, applied to paddy water, evaluated after 13 days
Experimental: as §3

rice (Oryza sativa) = assay: as above; conditions: 250 g ai/ha, Flood, applied to paddy water, evaluated after 13 days
Experimental: as §3

CC1(C(=O)NC2C=CC(C(=O)O)C2)CN(c2cc(F)cc(F)c2)C(=O)N1 (stereo not drawn) [Compound 179]
Kochia plant response rating (kochia (Bassia scoparia) [1]): 90 | Blackgrass plant response rating [2]: 100 | Horseweed plant response rating [3]: 80 | Foxtail, Green plant response rating [4]: 90 | Barnyardgrass plant response rating [5]: 100 | Galium plant response rating [6]: 90 | Kochia plant response rating (0 to 100 scale) (kochia (Bassia scoparia) [7]): 100 | Amaranth, Palmer / Pigweed, Palmer plant response rating (0 to 100 scale) [8]: 60 | Foxtail, Green plant response rating (0 to 100 scale) [9]: 100 | Barnyardgrass plant response rating (0 to 100 scale) [10]: 100 | Ryegrass, Italian plant response rating (0 to 100 scale) [11]: 100

COC(=O)C1CC(NC(=O)C2(C(F)(F)F)CN(c3cc(F)cc(F)c3)C(=O)O2)C1 (stereo not drawn) [Compound 196]
Plant response rating, Sedge, Umbrella (0 to 100 scale, 0 is no effect and 100 is complete control) [12]: 95 | Plant response rating, Barnyardgrass (0 to 100 scale, 0 is no effect and 100 is complete control) [13]: 95 | Plant response rating, Ducksalad (0 to 100 scale, 0 is no effect and 100 is complete control) [14]: 50 | Plant response rating, Rice (0 to 100 scale, 0 is no effect and 100 is complete control) (rice (Oryza sativa)): 85
